Laboratory results reported in patent US6737383B1, “Herbicidal oxadiazolidines” (priority 1999, dated 2004).

Assays:
wild oat = assay: Test B pre/postemergence wild oat; assay type: in vivo, Avena fatua
Outline: (§1)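 Test chemicals in a non-phytotoxic solvent mixture with surfactant were sprayed preemergence onto planted seeds and postemergence onto plants 2 to 18 cm tall (1- to 4-leaf stage). After twelve to sixteen days in a greenhouse, injury was visually rated against untreated controls from 0 (no effect) to 10 (complete control).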

smallflower flatsedge = assay: Test B flood test smallflower flatsedge; assay type: in vivo, Cyperus difformis
Outline: (§2)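 Read-out is a visual response score from 0 (no effect) to 10 (complete control), assigned by comparison with untreated controls. Treatment was applied at the 2-leaf stage, and plants stayed in the greenhouse for twelve to sixteen days before scoring.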

corn = assay: Test B pre/postemergence corn; assay type: in vivo, Zea mays
Outline: as §1

soybean = assay: Test B pre/postemergence soybean; assay type: in vivo, Glycine max
Outline: as §1

rice = assay: Test B flood test rice; assay type: in vivo, Oryza sativa
Outline: as §2

giant foxtail = assay: Test B pre/postemergence giant foxtail; assay type: in vivo, Setaria faberii
Outline: as §1

duck salad = assay: Test B flood test duck salad; assay type: in vivo, Heteranthera limosa
Outline: as §2

morningglory = assay: Test B pre/postemergence morningglory; assay type: in vivo, Ipomoea hederacea
Outline: as §1

surinam grass = assay: Test B pre/postemergence surinam grass; assay type: in vivo, Brachiaria decumbens
Outline: as §1

sugar beet = assay: Test B pre/postemergence sugar beet; assay type: in vivo, Beta vulgaris
Outline: as §1

cocklebur = assay: Test B pre/postemergence cocklebur; assay type: in vivo, Xanthium strumarium
Outline: as §1

crabgrass = assay: Test B pre/postemergence crabgrass; assay type: in vivo, Digitaria sanguinalis
Outline: as §1

blackgrass = assay: Test B pre/postemergence blackgrass; assay type: in vivo, Alopecurus myosuroides
Outline: as §1

pigweed = assay: Test B pre/postemergence pigweed; assay type: in vivo, Amaranthus retroflexus
Outline: as §1

purple nutsedge = assay: Test B pre/postemergence purple nutsedge; assay type: in vivo, Cyperus rotundus
Outline: as §1

[1] = Postemergence, Rate 250 g/ha, scale 0 to 10
[2] = Postemergence, Rate 500 g/ha, scale of 0 to 10 where 0 is no effect and 10 is complete control
[3] = Preemergence, Rate 62 g/ha, scale of 0 to 10 where 0 is no effect and 10 is complete control
[4] = Preemergence, Rate 125 g/ha, scale of 0 to 10 where 0 is no effect and 10 is complete control
[5] = Preemergence, Rate 250 g/ha, scale 0 to 10, 0 is no effect, 10 is complete control
[6] = Preemergence, Rate 500 g/ha, scale 0 to 10, 0 is no effect, 10 is complete control
[7] = Rate 62 g/ha, Postemergence, scale 0 to 10 (0 no effect, 10 complete control)
[8] = Rate 125 g/ha, Postemergence, scale 0 to 10, 0 is no effect, 10 is complete control
[9] = Rate 62 g/ha, flood test species, Pre-emergence, visual evaluation after twelve to sixteen days
[10] = Rate 125 g/ha, under heading Pre-emergence, flood test species, visual evaluation after twelve to sixteen days
[11] = Rate 250 g/ha, Pre-emergence (flood test species), scale 0 to 10, 0 is no effect, 10 is complete control
[12] = Rate 500 g/ha, Pre-emergence, flood test species, scale 0 to 10 (0 no effect, 10 complete control)

COC(C)n1c(=O)on(C(=O)N(c2ccccc2)C(C)C)c1=O (stereo not drawn) [Compound 441]
0: Wild oats plant response rating (wild oat; [1]) | Wild oats plant response rating (wild oat; [2]) | Plant response rating, Wild oats (wild oat; [3]) | Plant response rating, Wild oats (wild oat; [4]) | Wild oats plant response rating (wild oat; [5]) | Wild oats plant response rating (wild oat; [6]) | Wild oats plant response rating (wild oat; [7]) | Wild oats plant response rating (wild oat; [8]) | Plant response rating, S. Flatsedge (0 to 10 scale, 0 is no effect, 10 is complete control) (smallflower flatsedge; [9]) | S. Flatsedge plant response rating (0 to 10 scale, 0 is no effect, 10 is complete control) (smallflower flatsedge; [10]) | S. Flatsedge plant response rating (smallflower flatsedge; [11]) | S. Flatsedge plant response rating (smallflower flatsedge; [12]) | Corn plant response rating (corn; [1]) | Corn plant response rating (corn; [2]) | Plant response rating, Corn (corn; [3]) | Plant response rating, Corn (corn; [4]) | Corn plant response rating (corn; [5]) | Corn plant response rating (corn; [6]) | Corn plant response rating (corn; [7]) | Corn plant response rating (corn; [8]) | Soybean plant response rating (soybean; [1]) | Soybean plant response rating (soybean; [2]) | Plant response rating, Soybean (soybean; [3]) | Plant response rating, Soybean (soybean; [4]) | Soybean plant response rating (soybean; [5]) | Soybean plant response rating (soybean; [6]) | Soybean plant response rating (soybean; [7]) | Soybean plant response rating (soybean; [8]) | Plant response rating, Rice (0 to 10 scale, 0 is no effect, 10 is complete control) (rice; [9]) | Rice plant response rating (0 to 10 scale, 0 is no effect, 10 is complete control) (rice; [10]) | Rice plant response rating (rice; [11]) | Rice plant response rating (rice; [12]) | Giant foxtail plant response rating (giant foxtail; [1]) | Giant foxtail plant response rating (giant foxtail; [2]) | Plant response rating, Giant foxtail (giant foxtail; [3]) | Plant response rating, Giant foxtail (giant foxtail; [4]) | Giant foxtail plant response rating (giant foxtail; [5]) | Giant foxtail plant response rating (giant foxtail; [6]) | Giant foxtail plant response rating (giant foxtail; [7]) | Giant foxtail plant response rating (giant foxtail; [8]) | Plant response rating, Ducksalad (0 to 10 scale, 0 is no effect, 10 is complete control) (duck salad; [9]) | Ducksalad plant response rating (0 to 10 scale, 0 is no effect, 10 is complete control) (duck salad; [10]) | Ducksalad plant response rating (duck salad; [11]) | Ducksalad plant response rating (duck salad; [12]) | Morningglory plant response rating (morningglory; [1]) | Morningglory plant response rating (morningglory; [2]) | Plant response rating, Morningglory (morningglory; [3]) | Plant response rating, Morningglory (morningglory; [4]) | Morningglory plant response rating (morningglory; [5]) | Morningglory plant response rating (morningglory; [6]) | Morningglory plant response rating (morningglory; [7]) | Morningglory plant response rating (morningglory; [8]) | B. signalgrass plant response rating (surinam grass; Postemergence, Rate 250 g/ha, scale 0 to 10, 0 no effect, 10 complete control) | B. signalgrass plant response rating (surinam grass; [2]) | Plant response rating, B. signalgrass (surinam grass; [3]) | Plant response rating, B. signalgrass (surinam grass; [4]) | B. signalgrass plant response rating (surinam grass; [5]) | B. signalgrass plant response rating (surinam grass; [6]) | B. signalgrass plant response rating (surinam grass; [7]) | B. signalgrass plant response rating (surinam grass; [8]) | Sugarbeets plant response rating (sugar beet; [1]) | Sugarbeets plant response rating (sugar beet; [2]) | Plant response rating, Sugarbeets (sugar beet; [3]) | Plant response rating, Sugarbeets (sugar beet; [4]) | Sugarbeets plant response rating (sugar beet; [5]) | Sugarbeets plant response rating (sugar beet; [6]) | Sugarbeets plant response rating (sugar beet; [7]) | Sugarbeets plant response rating (sugar beet; [8]) | Cocklebur plant response rating (cocklebur; [1]) | Cocklebur plant response rating (cocklebur; [2]) | Plant response rating, Cocklebur (cocklebur; [3]) | Plant response rating, Cocklebur (cocklebur; [4]) | Cocklebur plant response rating (cocklebur; [5]) | Cocklebur plant response rating (cocklebur; [6]) | Cocklebur plant response rating (cocklebur; [7]) | Cocklebur plant response rating (cocklebur; [8]) | Crabgrass plant response rating (crabgrass; [1]) | Crabgrass plant response rating (crabgrass; [2]) | Plant response rating, Crabgrass (crabgrass; [3]) | Plant response rating, Crabgrass (crabgrass; [4]) | Crabgrass plant response rating (crabgrass; [5]) | Crabgrass plant response rating (crabgrass; [6]) | Crabgrass plant response rating (crabgrass; [7]) | Crabgrass plant response rating (crabgrass; [8]) | Blackgrass plant response rating (blackgrass; [1]) | Blackgrass plant response rating (blackgrass; [2]) | Plant response rating, Blackgrass (blackgrass; [3]) | Plant response rating, Blackgrass (blackgrass; [4]) | Blackgrass plant response rating (blackgrass; [5]) | Blackgrass plant response rating (blackgrass; [6]) | Blackgrass plant response rating (blackgrass; [7]) | Blackgrass plant response rating (blackgrass; [8]) | Redroot pigweed plant response rating (pigweed; [1]) | Redroot pigweed plant response rating (pigweed; [2]) | Plant response rating, Redroot pigweed (pigweed; [3]) | Plant response rating, Redroot pigweed (pigweed; [4]) | Redroot pigweed plant response rating (pigweed; [5]) | Redroot pigweed plant response rating (pigweed; [6]) | Redroot pigweed plant response rating (pigweed; [7]) | Redroot pigweed plant response rating (pigweed; [8]) | Nutsedge plant response rating (purple nutsedge; [1]) | Nutsedge plant response rating (purple nutsedge; [2]) | Plant response rating, Nutsedge (purple nutsedge; [3]) | Plant response rating, Nutsedge (purple nutsedge; [4]) | Nutsedge plant response rating (purple nutsedge; [5]) | Nutsedge plant response rating (purple nutsedge; [6]) | Nutsedge plant response rating (purple nutsedge; [7]) | Nutsedge plant response rating (purple nutsedge; [8])
